This is an account of results in publication PMC9465256, “Discovering monoacylglycerol lipase inhibitors by a combination of fluorogenic substrate assay and activity-based protein profiling” (Frontiers in Pharmacology, 2022).

For one test, the target named is T1, human ABHD12 (Homo sapiens, UniProt Q8N2K0).
T1 construct: expressed in transfected cells; host or cells: HEK293T (transient transfection; membrane fraction)
T1 sequence (Q8N2K0 1-398): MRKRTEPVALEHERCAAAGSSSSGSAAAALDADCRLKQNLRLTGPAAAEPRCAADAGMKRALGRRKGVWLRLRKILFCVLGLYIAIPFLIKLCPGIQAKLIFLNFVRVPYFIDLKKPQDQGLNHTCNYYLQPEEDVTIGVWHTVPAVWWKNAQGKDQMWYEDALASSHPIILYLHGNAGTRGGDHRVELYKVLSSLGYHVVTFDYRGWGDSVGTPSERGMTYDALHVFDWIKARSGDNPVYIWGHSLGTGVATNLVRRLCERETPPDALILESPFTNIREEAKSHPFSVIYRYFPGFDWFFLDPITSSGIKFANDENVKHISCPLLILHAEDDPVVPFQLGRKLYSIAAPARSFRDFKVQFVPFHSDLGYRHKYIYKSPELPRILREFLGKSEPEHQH
The test is described as follows: ABHD12 activity by competitive ABPP with FP-TAMRA. As to conditions: for potency towards ABHD12: 100 µM; for potency towards ABHD12 / inhibition at 100 µM: competitive ABPP; for inhibition at 100 µM: recombinant human ABHD12, 100 µM compound. It is filed as biochemical. The essentials: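 Membrane fractions of HEK293T cells transiently overexpressing human ABHD12 (1 mg/ml) preincubated with inhibitor or DMSO for 30 min at room temperature, then labelled with FP-TAMRA (250 nM final) for 20 min. Quenched samples resolved by SDS-PAGE and read by in-gel fluorescence scanning (Cy3 settings).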

The subject of a further test is H1975 cells. The test is described as follows: Cell viability assay (CCK-8), H1975. The test is classed as cell-based. The note with it: for IC50: Homo sapiens, NCI-H1975, H1975, 48 h, read-out: Antiproliferation activity (pIC50 ± SEM) H1975 (converted). On the procedure:
(§1) Various cancer cell lines, including human colon cancer cell line HT-29, ovarian cell line OVCAR-3, melanoma cell line B16-F10, skin squamous cancer cells A431, cervical cancer cells Hela, lung cancer cell lines A549, H1975, and HCC827, were purchased from American type culture collection (ATCC). A431, H1975, B16-F10, OVCAR-3, HT-29, HCC827, Hela, and A549 cells were cultured in Dulbecco’s modified Eagle medium (DMEM, Gibco) containing 10% fetal bovine serum (FBS, Gibco), penicillin (100 U/ml) and streptomycin (100 μg/ml). All cell lines were maintained in a humidified 37°C incubator with 5% CO2. The medium was refreshed every 2–3 days and the cells were passaged at ∼90% confluence by adding the fresh medium, followed by vigorously pipetting the resuspend cells. Of note, the cells were only washed with PBS when a significant number of dead cells were observed.
(§2) The antiproliferation activity of the compounds against the cancer cell lines was evaluated using Cell Counting Kit-8. Briefly, cells (∼1,000 per well) in 100 µl of culture medium were plated in a 96-well plate for 24 h and 100 µl of medium with different concentrations of the tested compounds was added to each well for 48 h. Then 10 μl of CCK8 solution (#CK04, Dojindo) was added and incubated at 37°C for 2 h. The absorbance of each well was measured with a plate reader (BioTeck) at 450 nm. Cell viability was calculated as follows: cell viability (%) = [(As-Ab)/(Ac-Ab)] × 100. Among them, As represents the absorbance of experimental wells, Ab represents the absorbance of blank wells and Ac represents the absorbance of control wells. The experiments were repeated at least three times and IC50 values were determined by plotting a log(inhibitor) v. s normalized response (Variable slope) dose–response curve generated using GraphPad Prism software.

The next test concerns B16-F10 cells. The test is described as follows: Cell viability assay (CCK-8), B16-F10. It is filed as cell-based. The note with it: for IC50: Mus musculus, read-out: Antiproliferation activity (pIC50 ± SEM) B16-F10 (converted). On the procedure: as §1, §2
The subject of another test is A549 cells. The test is described as follows: Cell viability assay (CCK-8), A549. The test is classed as cell-based. As to conditions: A549, 48 h; for IC50: Homo sapiens, read-out: Antiproliferation activity (pIC50 ± SEM) A549 (converted). On the procedure: as §1, §2
In test [1] the test system is serine hydrolases labeled by FP-TAMRA in cancer cells. The test is described as follows: Competitive ABPP in cancer cell lysates: selectivity / potential targets. The test is classed as biochemical. The note with it: 100 µM, FP-TAMRA 500 nM, in-gel analysis. On the procedure:
To identify the potential off-targets of the compounds with anti-cancer activities, ABPP was applied. Cancer cells were seeded in the dishes and were washed with PBS, scraped, centrifugated (3,000 × g, 3 min) and pellets snap frozen in liquid in nitrogen. For ABPP experiments, the cell pellets were lysed by probe sonication (3 × 10 bursts) in PBS, followed by the determination of protein concentration of the intact cell lysate by Qubit assay. Subsequently, 20 µl of the cell lysate (1 mg/ml) was preincubated with 0.5 µl of DMSO (vehicle) or inhibitor (100 μM, finial concentration) for 30 min, followed by the treatment with FP-TAMRA (500 nM, final concentration) for 20 min. The reactions were then quenched by 10 µl sample buffer (×4). The obtained samples were directly loaded and resolved on SDS-PAGE gel (10% acrylamide). The gel-based ABPP results were then scanned and analyzed using a ChemiDoc MP system (Cy3 settings, BioRad).

Test [2] deals with panel of cancer cell lines (A431, H1975, B16-F10, OVCAR-3, HT-29, HCC827, Hela, A549). The test is described as follows: Cell viability assay (CCK-8), panel of eight cancer cell lines. It is filed as cell-based. The note with it: 48 h; for antiproliferative screening across the cell line panel: 20 µM. The method, then: as §1, §2
The mark [3] stands for this setting: 100 µM compound, competitive ABPP with probe FP-TAMRA (250 nM), read-out: ABHD12 Inhibition (%).

A word on the inhibition: it is the share of the control response that was lost under treatment.

As for `COc1ccc2cc3[n+](cc2c1OC)CCc1cc2c(cc1-3)OCO2` [compound 17, Berberine chloride], the activity at 100 µM at human ABHD12 (setting [3]) stood at 86.1%. Besides, the IC50 is greater than 10 µM in the test with H1975 cells; greater than 10 µM with B16-F10 cells (B16-F10, 48 h, CCK-8); greater than 10 µM with A549 cells. In test [1], the “selectivity / potential targets among serine hydrolases in cancer cells” value was “No potential target was found”.

With `O=c1cc(-c2ccc(O)cc2)oc2cc(O)cc(O)c12` [compound 9, Apigenin], the activity at 100 µM on human ABHD12 (setting [3]) is 62.8%. Further, the “potency towards ABHD12” value on human ABHD12 is given as “neglectable potency”. At human ABHD12, the inhibition at 100 µM was determined as 37%. Further, the IC50 with H1975 cells is greater than 10 µM; in the test with B16-F10 cells (B16-F10, 48 h, CCK-8), greater than 10 µM; with A549 cells, greater than 10 µM. Also, in the test with B16-F10 cells (20 µM, 48 h), the “inhibition of cell viability of B16-F10” value is recorded as 54%. For the same compound, in test [2], the “antiproliferative screening across the cell line panel” value is given as “neglectable antiproliferative behavior to other cell lines”.

For `Cl.N=c1ccn2c(n1)O[C@H]1[C@H](O)[C@@H](CO)O[C@H]12` [compound 1, Cyclocytidine HCl], the activity on human ABHD12 (setting [3]) came out at 70.1%. Further, the “Antiproliferation activity (pIC50 ± SEM) H1975” value with H1975 cells (H1975, 48 h) is less than 5. Further, the “Antiproliferation activity (pIC50 ± SEM) B16-F10” value in the test on B16-F10 cells (B16-F10, 48 h, CCK-8) was 5.7 ± 0.2. The “Antiproliferation activity (pIC50 ± SEM) A549” value in the test with A549 cells is 6.3 ± 0.2. In addition, in test [2], the “antiproliferative screening across the cell line panel” value is “appreciable inhibition against almost all the tested cell lines”. In addition, the “selectivity / potential targets among serine hydrolases in cancer cells” value in test [1] is reported as “No potential target was found”.

`COc1ccc(C(C)=O)c(O)c1` [compound 64, Paeonol]: at human ABHD12 (setting [3]), the activity at 100 µM was found to be 92.2%. The IC50 was greater than 10 µM in the test on H1975 cells; greater than 10 µM with B16-F10 cells (B16-F10, 48 h, CCK-8); greater than 10 µM in the test on A549 cells. Moreover, the “antiproliferative screening across the cell line panel” value in test [2] is on record as “selectively inhibited cell proliferation of A431 over other cell lines”. Further, in test [1], the “selectivity / potential targets among serine hydrolases in cancer cells” value is listed as “No potential target was found”.

As to `C[C@H]1COC2=C1C(=O)C(=O)c1c2ccc2c1CCCC2(C)C` [compound 23, Cryptotanshinone], on human ABHD12 (setting [3]), the activity at 100 µM worked out at 81.6%. Also, the “potency towards ABHD12” value on human ABHD12 is on record as “neglectable potency”. Further, the inhibition at 100 µM on human ABHD12 is 18%. For the same compound, the IC50 was 10 µM in the test with H1975 cells; 7.94 µM with B16-F10 cells (B16-F10, 48 h, CCK-8); 3.16 µM in the test on A549 cells; no more than 10 µM in test [2] (CCK-8, read-out: pIC50 towards all eight cancer cell lines (converted)). Besides, the “antiproliferative screening across the cell line panel” value in test [2] was “appreciable inhibition against almost all the tested cell lines”. Further, the “selectivity / potential targets among serine hydrolases in cancer cells” value in test [1] is recorded as “broad-spectrum inhibitor by targeting a number of serine hydrolases in cancer cells”.
